This is an account of results in publication PMC6263154 (Bioorganic & medicinal chemistry letters, 2018).

Structures are written as SMILES.

Data set [1] deals with M. abscessus infection. The note with it: mouse model of M. abscessus infection, intrapulmonary delivery; cited from earlier work.
The test system of data set [2] is mmpL3. The note with it: in both Mabs and Mtb; cited from earlier work.
Data set [3] can be described thus: Cytotoxicity towards HepG2 cell line. It counts as cell-based. Particulars: human, HepG2 cells.
Data set [4] has as its system CYP2B6, CYP2C8, CYP2C9, CYP2C19, CYP2D6, CYP3A4. Nature of the data set: CYP inhibition, in vitro panel of six common isoforms. It counts as biochemical. Particulars: human.
Data set [5] addresses CYP3A4 (Homo sapiens, UniProt P08684). Nature of the data set: CYP inhibition, CYP3A4. It counts as biochemical.
Data set [6] addresses T1, CYP2B6 (Homo sapiens, UniProt P20813).
T1 sequence (P20813 1-491): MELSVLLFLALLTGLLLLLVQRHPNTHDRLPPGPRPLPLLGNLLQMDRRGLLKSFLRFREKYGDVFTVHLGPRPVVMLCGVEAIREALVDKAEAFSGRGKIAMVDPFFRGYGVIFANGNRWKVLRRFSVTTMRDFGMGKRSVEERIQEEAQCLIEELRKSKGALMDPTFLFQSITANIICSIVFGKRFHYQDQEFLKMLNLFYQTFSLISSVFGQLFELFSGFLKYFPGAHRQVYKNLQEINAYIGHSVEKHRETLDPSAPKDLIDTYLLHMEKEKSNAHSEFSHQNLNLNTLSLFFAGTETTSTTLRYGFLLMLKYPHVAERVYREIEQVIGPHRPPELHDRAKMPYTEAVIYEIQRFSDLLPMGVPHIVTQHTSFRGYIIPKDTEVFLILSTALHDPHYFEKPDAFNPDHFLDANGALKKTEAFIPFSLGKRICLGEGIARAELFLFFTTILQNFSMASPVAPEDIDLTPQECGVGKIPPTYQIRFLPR
Briefly: CYP inhibition, CYP2B6. The class given is biochemical.

In data set [7] the test system is Mabs. Particulars: for 3 days; cited from earlier work.
Data set [8] has as its system Mycobacterium avium complex. Briefly: MIC against Mycobacterium avium complex. The note with it: MAC; listed as CRS400393. It counts as cell-based.
On the set-up of data set [9]: species or system mice. The note with it: mouse, in vivo.

Sequence of CYP3A4 (P08684 whole entry): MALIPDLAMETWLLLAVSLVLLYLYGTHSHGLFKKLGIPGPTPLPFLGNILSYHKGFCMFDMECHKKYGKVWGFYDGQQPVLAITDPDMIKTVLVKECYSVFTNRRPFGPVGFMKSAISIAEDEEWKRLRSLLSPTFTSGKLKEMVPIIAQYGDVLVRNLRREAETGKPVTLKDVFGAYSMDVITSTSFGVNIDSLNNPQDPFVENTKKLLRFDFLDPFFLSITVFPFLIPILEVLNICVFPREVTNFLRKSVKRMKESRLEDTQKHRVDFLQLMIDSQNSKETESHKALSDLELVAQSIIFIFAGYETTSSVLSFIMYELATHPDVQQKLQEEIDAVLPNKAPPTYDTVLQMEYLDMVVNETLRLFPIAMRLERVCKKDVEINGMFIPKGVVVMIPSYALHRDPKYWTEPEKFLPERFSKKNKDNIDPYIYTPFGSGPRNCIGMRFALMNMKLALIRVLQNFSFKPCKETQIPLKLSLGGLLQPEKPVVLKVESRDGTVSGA

As for `CC12CC3CC(C)(C1)CC(C(=O)Nc1nc4ccc(OC(F)(F)F)cc4s1)(C3)C2` [CRS400226], the in vivo efficacy entry in [1] is listed as “demonstrated in vivo efficacy”.

As usually defined, the IC50 is the concentration at which inhibition is half-maximal. Low values mean inhibition by little substance, high ones a need for much substance. In the case of `CC1CC(C(=O)Nc2nc3ccc(OC(F)(F)F)cc3s2)CC(C)(C)C1` (stereo not drawn) [Compound 32], the “effect on transfer of mycolic acids to cell envelope acceptors” value in data set [2] was “affect the transfer of mycolic acids”. Further, the IC50 in data set [3] is > 100 µM; in data set [4], > 20 µM.

For orientation: inhibition means how much of the control response was suppressed. The low end stands for a weak effect, the high end for a strong effect. For `CC12CCCC(C(=O)Nc3nc4ccc(OC(F)(F)F)cc4s3)(CCC1)C2` [Compound 52], the inhibition at 10 µM in data set [5] and in [6] was ≤ 50% in each case.

As to `CC12CCCC(C(=O)Nc3nc4cc(Cl)cc(Cl)c4s3)(CCC1)C2` [Compound 43], the “time kill: effect against Mabs” value in [7] is on record as “bacteriostatic”. Moreover, the inhibition at 10 µM in data set [5] and in data set [6] was ≤ 50% in each case. In addition, the “MIC against Mycobacterium avium complex” value in data set [8] is 1 to 2 µg/mL.

Regarding `CC1CC(C(=O)Nc2nc3c(F)cc(F)cc3s2)CC(C)(C)C1` (stereo not drawn) [Compound 18], in [2], the “effect on transfer of mycolic acids to cell envelope acceptors” value is “affect the transfer of mycolic acids”. In data set [9], the “single dose toxicity observation” value is reported as “All mice appeared normal with no abnormal behavior observed”.
